The text below walks through data of patent US20240158446A1, “CYCLIC COMPOUND HAVING SELECTIVE INHIBITORY ACTION ON KRAS OVER HRAS AND NRAS” (CHUGAI SEIYAKU KABUSHIKI KAISHA, priority 2021, published 2024).

Assay [1] concerns the target GDP-bound KRAS wild-type protein (Homo sapiens, UniProt P01116). Briefly: Binding to KRAS by surface plasmon resonance (SPR), Single Cycle Kinetics. To be noted: SPR, Single Cycle Kinetics, GDP-bound KRAS wild-type protein; read-out: KRAS KD. (In general: SPR reads the build-up and loss of mass on a sensor chip optically.)
Assay [2] concerns the target GDP-bound NRAS wild-type protein (Homo sapiens, UniProt P01111). Briefly: Binding to NRAS by surface plasmon resonance (SPR), Single Cycle Kinetics. The conditions noted are these: ratio of KD for GDP-bound NRAS wild-type protein to KD for KRAS, SPR.
The target in assay [3] is GDP-bound HRAS wild-type protein (Homo sapiens, UniProt P01112). The experiment in a line: Binding to HRAS by surface plasmon resonance (SPR), Single Cycle Kinetics. To be noted: ratio of KD for GDP-bound HRAS wild-type protein to KD for KRAS, SPR.
Sequence of GDP-bound HRAS wild-type protein (P01112 whole entry): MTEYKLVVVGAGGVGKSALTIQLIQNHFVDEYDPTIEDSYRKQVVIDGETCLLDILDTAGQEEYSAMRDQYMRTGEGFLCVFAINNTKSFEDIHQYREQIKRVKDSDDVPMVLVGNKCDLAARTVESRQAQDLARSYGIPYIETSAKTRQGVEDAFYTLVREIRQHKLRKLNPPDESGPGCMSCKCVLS
Assay [4] relates to human lung cancer strain NCI-H441. The experiment in a line: cells. To be noted: NCI-H441, 96 h, read-out: NCI-H441 IC50 (nM), NCI-H441 cell proliferation, 4 days, CellTiter-Glo. (ATP-based viability assays read luminescence as a measure of living cells.)
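Throughout, for IC50: cell proliferation inhibition after four days measured by CellTiter-Glo.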

Sequence of GDP-bound KRAS wild-type protein (P01116 whole entry): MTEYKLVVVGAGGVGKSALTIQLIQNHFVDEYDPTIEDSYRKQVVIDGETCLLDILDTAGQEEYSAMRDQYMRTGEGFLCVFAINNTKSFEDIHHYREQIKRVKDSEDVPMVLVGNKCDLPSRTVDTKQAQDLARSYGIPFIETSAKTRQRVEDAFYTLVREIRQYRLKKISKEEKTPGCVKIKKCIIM
Sequence of GDP-bound NRAS wild-type protein (P01111 whole entry): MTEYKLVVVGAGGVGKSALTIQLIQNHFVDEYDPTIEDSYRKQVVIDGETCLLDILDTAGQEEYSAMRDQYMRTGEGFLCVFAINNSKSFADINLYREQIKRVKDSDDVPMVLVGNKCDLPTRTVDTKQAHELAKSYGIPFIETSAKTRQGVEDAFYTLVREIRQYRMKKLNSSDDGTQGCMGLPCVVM

By Kd is commonly meant the free concentration of one partner at which half of the binding sites on the other are occupied at equilibrium, for simple one-to-one binding. For `CCCN(C)C(=O)[C@@H]1CC(=O)N(C)[C@@H](CCOC)C(=O)N[C@@H]([C@@H](C)CC)C(=O)N(C)CC(=O)N(C)[C@H]2C/C=C\CCN(C2=O)[C@@H](Cc2ccc(C(F)(F)F)cc2)C(=O)N(C)CC(=O)N[C@@H](CCc2ccc(C(F)(F)F)c(OC)c2)C(=O)N2C[C@@H](C)C[C@H]2C(=O)NC2(CC(C)(C)C2)C(=O)N(C)[C@@H](C2CCCC2)C(=O)N1C` [PP2001], the dissociation constant Kd in assay [1] is 0.11 nM. The “NRAS/KRAS (KD ratio)” value in assay [2] is “A (a compound having 10 or more and less than 20 is denoted as A)”. Also, the “HRAS/KRAS (KD ratio)” value in assay [3] is “A (a compound having 10 or more and less than 20 is denoted as A)”. In assay [4], the IC50 stood at 18.1 nM.

On to `CC[C@H](C)[C@@H]1NC(=O)[C@H](C(C)C)N(C)C(=O)C[C@@H](C(=O)N(C)CC)N(C)C(=O)[C@H](C2CCCC2)N(C)C(=O)C2(CC(C)(C)C2)NC(=O)[C@@H]2C[C@H](C)CN2C(=O)[C@H](CCc2ccc(C(F)(F)F)c(OC)c2)NC(=O)CN(C)C(=O)[C@H](Cc2ccc(C(F)(F)F)cc2)N2CC/C=C\C[C@@H](C2=O)N(C)C(=O)CN(C)C1=O` [PP2003], for which the Kd in assay [1] is 0.34 nM. Besides, in assay [2], the “NRAS/KRAS (KD ratio)” value is “A (a compound having 10 or more and less than 20 is denoted as A)”. The “HRAS/KRAS (KD ratio)” value in assay [3] is “B (a compound having 3 or more and less than 10 is denoted as B)”. For the same compound, the IC50 in assay [4] was 11.3 nM.

For `CC[C@H](C)[C@@H]1NC(=O)[C@H](C(C)C)N(C)C(=O)C[C@@H](C(=O)N(C)C)N(C)C(=O)[C@H](C2CCCC2)N(C)C(=O)C2(CC(C)(C)C2)NC(=O)[C@@H]2C[C@H](C)CN2C(=O)[C@H](CCc2ccc(C(F)(F)F)c(OC)c2)NC(=O)CN(C)C(=O)[C@H](Cc2ccc(C(F)(F)F)cc2)N2CC/C=C\C[C@@H](C2=O)N(C)C(=O)CN(C)C1=O` [PP2005], the Kd in assay [1] worked out at 0.13 nM. Also, the “NRAS/KRAS (KD ratio)” value in assay [2] is “A (a compound having 10 or more and less than 20 is denoted as A)”. The “HRAS/KRAS (KD ratio)” value in assay [3] was “A (a compound having 10 or more and less than 20 is denoted as A)”. Besides, the IC50 in assay [4] amounted to 10.7 nM.

Regarding `CC[C@H](C)[C@@H]1NC(=O)[C@H](C2CC2)N(C)C(=O)C[C@@H](C(=O)N(C)CC)N(C)C(=O)[C@H](C2CCCC2)N(C)C(=O)C2(CC(C)(C)C2)NC(=O)[C@@H]2C[C@H](C)CN2C(=O)[C@H](CCc2ccc(C(F)(F)F)c(OC)c2)NC(=O)CN(C)C(=O)[C@H](Cc2ccc(C(F)(F)F)cc2)N2CC/C=C\C[C@@H](C2=O)N(C)C(=O)CN(C)C1=O` [PP2007], the equilibrium dissociation constant (Kd) in assay [1] came out at 0.14 nM. Also, the “NRAS/KRAS (KD ratio)” value in assay [2] is “AA (a compound having 20 or more is denoted as AA)”. Moreover, in assay [3], the “HRAS/KRAS (KD ratio)” value was “B (a compound having 3 or more and less than 10 is denoted as B)”. Further, the IC50 in assay [4] worked out at 14.9 nM.

Take `CC[C@H](C)[C@@H]1NC(=O)[C@H](C2CCC2)N(C)C(=O)C[C@@H](C(=O)N(C)CC)N(C)C(=O)[C@H](C2CCCC2)N(C)C(=O)C2(CC(C)(C)C2)NC(=O)[C@@H]2C[C@H](C)CN2C(=O)[C@H](CCc2ccc(C(F)(F)F)c(OC)c2)NC(=O)CN(C)C(=O)[C@H](Cc2ccc(C(F)(F)F)cc2)N2CC/C=C\C[C@@H](C2=O)N(C)C(=O)CN(C)C1=O` [PP2009]: in assay [1], the Kd amounted to 0.19 nM. The “NRAS/KRAS (KD ratio)” value in assay [2] was “A (a compound having 10 or more and less than 20 is denoted as A)”. For the same compound, the “HRAS/KRAS (KD ratio)” value in assay [3] was “A (a compound having 10 or more and less than 20 is denoted as A)”. Moreover, in assay [4], the IC50 is 19.7 nM.

Consider `CCCN(C)C(=O)[C@@H]1CC(=O)N(C)[C@@H](CC(F)F)C(=O)N[C@@H]([C@@H](C)CC)C(=O)N(C)CC(=O)N(C)[C@H]2C/C=C\CCN(C2=O)[C@@H](Cc2ccc(C(F)(F)F)cc2)C(=O)N(C)CC(=O)N[C@@H](CCc2ccc(C(F)(F)F)c(OC)c2)C(=O)N2C[C@H](OCC)C[C@H]2C(=O)NC2(CC(C)(C)C2)C(=O)N(C)[C@@H](C2CCCC2)C(=O)N1C` [PP2010], for which the Kd in assay [1] was determined as 0.14 nM. Moreover, the “NRAS/KRAS (KD ratio)” value in assay [2] is “A (a compound having 10 or more and less than 20 is denoted as A)”. The “HRAS/KRAS (KD ratio)” value in assay [3] is “B (a compound having 3 or more and less than 10 is denoted as B)”. Also, in assay [4], the IC50 was found to be 6.6 nM.

For the compound `CC[C@H](C)[C@@H]1NC(=O)[C@H](C2CCC2)N(C)C(=O)C[C@@H](C(=O)N(C)C)N(C)C(=O)[C@H](C2CCCC2)N(C)C(=O)C2(CC(C)(C)C2)NC(=O)[C@@H]2C[C@H](C)CN2C(=O)[C@H](CCc2ccc(C(F)(F)F)c(OC)c2)NC(=O)CN(C)C(=O)[C@H](Cc2ccc(C(F)(F)F)cc2)N2CC/C=C\C[C@@H](C2=O)N(C)C(=O)CN(C)C1=O` [PP2011], the Kd in assay [1] turned out to be 0.11 nM. Also, in assay [2], the “NRAS/KRAS (KD ratio)” value was “A (a compound having 10 or more and less than 20 is denoted as A)”. For the same compound, in assay [3], the “HRAS/KRAS (KD ratio)” value was “A (a compound having 10 or more and less than 20 is denoted as A)”. In addition, in assay [4], the IC50 stood at 10.3 nM.

`CCCN(C)C(=O)[C@@H]1CC(=O)N(C)[C@@H](COCC)C(=O)N[C@@H]([C@@H](C)CC)C(=O)N(C)CC(=O)N(C)[C@H]2C/C=C\CCN(C2=O)[C@@H](Cc2ccc(C(F)(F)F)cc2)C(=O)N(C)CC(=O)N[C@@H](CCc2ccc(C(F)(F)F)c(OC)c2)C(=O)N2C[C@H](OCC)C[C@H]2C(=O)NC2(CC(C)(C)C2)C(=O)N(C)[C@@H](C2CCCC2)C(=O)N1C` [PP2012]: in assay [1], the Kd turned out to be 0.097 nM. Also, the “NRAS/KRAS (KD ratio)” value in assay [2] is “AA (a compound having 20 or more is denoted as AA)”. The “HRAS/KRAS (KD ratio)” value in assay [3] was “A (a compound having 10 or more and less than 20 is denoted as A)”. In addition, the IC50 in assay [4] is 11.6 nM.

On to `CCCN(C)C(=O)[C@@H]1CC(=O)N(C)[C@@H](CC(F)F)C(=O)N[C@@H]([C@@H](C)CC)C(=O)N(C)CC(=O)N(C)[C@H]2C/C=C\CCN(C2=O)[C@@H](Cc2ccc(C(F)(F)F)cc2)C(=O)N(C)CC(=O)N[C@@H](CCc2ccc(C(F)(F)F)c(OC)c2)C(=O)N2C[C@H](OCC)C[C@H]2C(=O)NC2(CCC2)C(=O)N(C)[C@@H](C2CCCC2)C(=O)N1C` [PP2013], for which, in assay [1], the dissociation constant (Kd) worked out at 0.13 nM. The “NRAS/KRAS (KD ratio)” value in assay [2] was “A (a compound having 10 or more and less than 20 is denoted as A)”. The “HRAS/KRAS (KD ratio)” value in assay [3] is “B (a compound having 3 or more and less than 10 is denoted as B)”. Besides, the IC50 in assay [4] is 7.7 nM.

On to `CCOC[C@H]1C(=O)N[C@@H]([C@@H](C)CC)C(=O)N(C)CC(=O)N(C)[C@H]2C/C=C\CCN(C2=O)[C@@H](Cc2ccc(C(F)(F)F)cc2)C(=O)N(C)CC(=O)N[C@@H](CCc2ccc(C(F)(F)F)c(OC)c2)C(=O)N2C[C@H](OCC)C[C@H]2C(=O)NC2(CC(C)(C)C2)C(=O)N(C)[C@@H](C2CCCC2)C(=O)N(C)[C@H](C(=O)N(C)CC)CC(=O)N1C` [PP2014], for which the dissociation constant Kd in assay [1] came out at 0.093 nM. In assay [2], the “NRAS/KRAS (KD ratio)” value was “A (a compound having 10 or more and less than 20 is denoted as A)”. In assay [3], the “HRAS/KRAS (KD ratio)” value is “A (a compound having 10 or more and less than 20 is denoted as A)”. The IC50 in assay [4] was found to be 6.9 nM.

As to `CCCN(C)C(=O)[C@@H]1CC(=O)N(C)[C@@H](COCC)C(=O)N[C@@H]([C@@H](C)CC)C(=O)N(C)CC(=O)N(C)[C@H]2C/C=C\CCN(C2=O)[C@@H](Cc2ccc(C(F)(F)F)cc2)C(=O)N(C)CC(=O)N[C@@H](CCc2ccc(C(F)(F)F)c(OC)c2)C(=O)N2C[C@H](OCC)C[C@H]2C(=O)NC2(CCC2)C(=O)N(C)[C@@H](C2CCCC2)C(=O)N1C` [PP2015], the dissociation constant Kd in assay [1] amounted to 0.11 nM. Besides, the “NRAS/KRAS (KD ratio)” value in assay [2] is “A (a compound having 10 or more and less than 20 is denoted as A)”. For the same compound, the “HRAS/KRAS (KD ratio)” value in assay [3] is “B (a compound having 3 or more and less than 10 is denoted as B)”. Further, in assay [4], the IC50 was 5.6 nM.

Take `CCCOC[C@H]1C(=O)N[C@@H]([C@@H](C)CC)C(=O)N(C)CC(=O)N(C)[C@H]2C/C=C\CCN(C2=O)[C@@H](Cc2ccc(C(F)(F)F)cc2)C(=O)N(C)CC(=O)N[C@@H](CCc2ccc(C(F)(F)F)c(OC)c2)C(=O)N2C[C@H](OCC)C[C@H]2C(=O)NC2(CCC2)C(=O)N(C)[C@@H](C2CCCC2)C(=O)N(C)[C@H](C(=O)N(C)CC)CC(=O)N1C` [PP2016]: the Kd in assay [1] amounted to 0.11 nM. In assay [2], the “NRAS/KRAS (KD ratio)” value was “A (a compound having 10 or more and less than 20 is denoted as A)”. In addition, the “HRAS/KRAS (KD ratio)” value in assay [3] was “A (a compound having 10 or more and less than 20 is denoted as A)”. Also, the IC50 in assay [4] was found to be 8.2 nM.

For `CCCN(C)C(=O)[C@@H]1CC(=O)N(C)[C@@H](CCOC)C(=O)N[C@@H]([C@@H](C)CC)C(=O)N(C)CC(=O)N(C)[C@H]2C/C=C\CCN(C2=O)[C@@H](Cc2ccc(C(F)(F)F)cc2)C(=O)N(C)CC(=O)N[C@@H](CCc2ccc(C(F)(F)F)c(OC)c2)C(=O)N2C[C@H](OCC)C[C@H]2C(=O)NC2(CCC2)C(=O)N(C)[C@@H](C2CCCC2)C(=O)N1C` [PP2018], the equilibrium dissociation constant (Kd) in assay [1] was 0.1 nM. Moreover, the “NRAS/KRAS (KD ratio)” value in assay [2] is “A (a compound having 10 or more and less than 20 is denoted as A)”. For the same compound, the “HRAS/KRAS (KD ratio)” value in assay [3] was “B (a compound having 3 or more and less than 10 is denoted as B)”. For the same compound, the IC50 in assay [4] was 5.3 nM.

`CCCN(C)C(=O)[C@@H]1CC(=O)N(C)[C@@H](C(C)C)C(=O)N[C@@H]([C@@H](C)CC)C(=O)N(C)CC(=O)N(C)[C@H]2C/C=C\CCN(C2=O)[C@@H](Cc2ccc(C(F)(F)F)cc2)C(=O)N(C)CC(=O)N[C@@H](CCc2ccc(C(F)(F)F)c(OC)c2)C(=O)N2C[C@H](OCC)C[C@H]2C(=O)NC2(CCC2)C(=O)N(C)[C@@H](C2CCCC2)C(=O)N1C` [PP2020]: the Kd in assay [1] was 0.19 nM. The “NRAS/KRAS (KD ratio)” value in assay [2] was “A (a compound having 10 or more and less than 20 is denoted as A)”. Further, the “HRAS/KRAS (KD ratio)” value in assay [3] was “A (a compound having 10 or more and less than 20 is denoted as A)”. Moreover, in assay [4], the IC50 is 8.3 nM.
